Read-outs that look alike come from different tables or passages of the source.
What was measured:
[1] = Determination of LD50 in mice; settings: mouse, in vivo, ip; male mice, intraperitoneal, observation 72 h
Experimental: Male mice were divided into various groups and test compounds were administered in various doses intraperitoneally. […] All behavioral changes and deaths during the observation periods were recorded. The percentage of death at each dose level was then calculated, converted to probits and the LD50 (μM/kg) values were calculated. To observe the health status of the mice, they were monitored 4 times a day. […] For the purpose of ameliorating the suffering of the dying mice, CO2 euthanasia was applied. All the dead mice were disposed in bio-safety containers in accordance with local standard protocols. The mortality rate in each group was calculated according to the formula: Mortality rate(%)=(the number of dead mice/the number of mice in the group)×100.

COX-1 = target: T1, COX-1 (Ovis aries, UniProt P05979); assay: In vitro cyclooxygenase inhibitory assay (Cayman colorimetric COX (ovine) inhibitor screening kit), COX-1; type: biochemical; settings: read-out: COX-1 (%) inhibition
T1 construct: purchased Cayman chemicals, USA
T1 sequence (P05979 25-600): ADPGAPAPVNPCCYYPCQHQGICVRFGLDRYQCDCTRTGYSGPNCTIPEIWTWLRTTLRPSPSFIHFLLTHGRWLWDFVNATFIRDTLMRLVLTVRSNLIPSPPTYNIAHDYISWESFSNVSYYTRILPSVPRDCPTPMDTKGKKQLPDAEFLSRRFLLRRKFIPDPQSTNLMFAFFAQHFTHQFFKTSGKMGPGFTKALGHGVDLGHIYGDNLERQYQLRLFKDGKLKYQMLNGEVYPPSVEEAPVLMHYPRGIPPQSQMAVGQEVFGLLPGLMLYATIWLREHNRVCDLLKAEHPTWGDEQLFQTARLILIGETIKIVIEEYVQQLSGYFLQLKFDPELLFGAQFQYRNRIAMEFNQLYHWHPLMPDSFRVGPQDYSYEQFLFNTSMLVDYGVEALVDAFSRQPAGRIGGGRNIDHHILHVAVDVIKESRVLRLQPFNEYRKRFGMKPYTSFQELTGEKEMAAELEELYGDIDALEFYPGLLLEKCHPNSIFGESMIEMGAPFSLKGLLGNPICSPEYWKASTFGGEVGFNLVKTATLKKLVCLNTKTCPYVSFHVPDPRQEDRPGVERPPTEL
Experimental: (§1) The calculations were performed as per the kit guidelines.

COX-2 = target: T2, COX-2 (Ovis aries, UniProt P79208); assay: In vitro cyclooxygenase inhibitory assay (Cayman colorimetric COX (ovine) inhibitor screening kit), COX-2; type: biochemical; settings: for inhibition at 2 µM: read-out: COX-2 (%) inhibition; for selectivity for COX-2 (in words): from COX-2/COX-1 % inhibition at 2.0 μM; for S I (selectivity COX-2/COX-1): ratio of % inhibition COX-2/COX-1 at 2.0 μM
T2 construct: purchased Cayman chemicals, USA
T2 sequence (P79208 17-603): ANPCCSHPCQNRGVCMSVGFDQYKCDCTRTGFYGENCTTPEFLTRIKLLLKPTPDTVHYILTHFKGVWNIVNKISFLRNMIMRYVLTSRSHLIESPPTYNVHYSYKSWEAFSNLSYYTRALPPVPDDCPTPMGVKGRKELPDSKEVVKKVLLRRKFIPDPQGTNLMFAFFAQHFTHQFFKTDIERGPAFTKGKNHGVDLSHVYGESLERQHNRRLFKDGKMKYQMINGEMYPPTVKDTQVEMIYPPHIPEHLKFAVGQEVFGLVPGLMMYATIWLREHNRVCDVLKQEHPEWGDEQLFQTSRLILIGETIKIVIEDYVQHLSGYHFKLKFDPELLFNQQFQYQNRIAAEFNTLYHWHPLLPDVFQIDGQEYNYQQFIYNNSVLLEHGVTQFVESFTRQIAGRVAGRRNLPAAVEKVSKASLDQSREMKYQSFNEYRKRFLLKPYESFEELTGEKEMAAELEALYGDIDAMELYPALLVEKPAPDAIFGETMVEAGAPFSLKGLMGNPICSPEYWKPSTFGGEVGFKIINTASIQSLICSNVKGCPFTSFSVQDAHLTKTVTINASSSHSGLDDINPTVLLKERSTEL
Experimental: as §1

[2] = tested on: carrageenan induced rat paw edema; assay: carrageenan-induced rat paw edema bioassay; type: in vivo; settings: % inhibition of carrageenan induced rat paw edema, intraperitoneal; for Anti-inflammatory activity, 0.5 h (%): 0.5 h after treatment; for Anti-inflammatory activity, 1 h (%): 1 h after treatment; for Anti-inflammatory activity, 2 h (%): 2 h after treatment; for Anti-inflammatory activity, 3 h (%): 3 h after treatment
Experimental: Male albino rats weighing 300 g where purchased from the Department of Zoology and Environmental Biology, University of Nigeria, Nsukka and kept at room temperature in a light controlled animal house. They were fasted with free access to water at least 12 h prior to the experiments. […] The positive control received celecoxib while the negative control received only the vehicle. Edema was produced by injecting 0.2 mL of a solution of 1% carrageenan in the hind paw. The rats were injected intraperitoneally with 1 mL suspension in 0.5% methylcellulose of the tested compounds and reference drug. Paw volume was measured by water displacement with a plethysmometer (UGO BASILE) before, 30 min, 1 h, 2 h and 3 h after treatment. The percentage was calculated by the following equation [25].
Anti-inflammatory activity (%) = (1-D/C)[…], where D represents the difference in paw volume before and after drug administration to the rats and C represents the difference of volume in the control groups. The approval for the use of animal was obtained from the University of Nigeria committee on experimental animal use. No sign of death was observed during the experiment.

Structure (SMILES): Cc1ccc(S(=O)(=O)N(C(=O)c2ccccc2)[C@@H](CC(C)C)C(=O)Nc2cc(C)ccn2)cc1 [Compound 7l, (2S)-4-Methyl-2-[N-(4-methylbenzenesulfonyl)-1-phenylformamido]-N-(4-methylpyridin-2-yl) pentanamide]
- LD50 at 72 h [1]: 12.5 µmol/kg
- inhibition at 2 µM (COX-1; concentration of 2.0 μM): 20%
- inhibition at 2 µM (COX-2; concentration of 2.0 μM): 19%
- selectivity for COX-2 (in words) (COX-2): non-selective
- S I (selectivity COX-2/COX-1) (COX-2): 0.95
- Anti-inflammatory activity, 0.5 h (%) [2]: 26.15%
- Anti-inflammatory activity, 1 h (%) [2]: 19.88%
- Anti-inflammatory activity, 2 h (%) [2]: 18.28%
- Anti-inflammatory activity, 3 h (%) [2]: 16.67%

Structure (SMILES): CCC(C)[C@@H](C(=O)Nc1cc(C)ccn1)N(C(=O)c1ccccc1)S(=O)(=O)c1ccc(C)cc1 (stereo partly drawn) [Compound 7m, (2S)-3-Methyl-2-[N-(4-methylbenzenesulfonyl)-1-phenylformamido]-N-(4-methylpyridin-2-yl) pentanamide]
- LD50 at 72 h [1]: 11.9 µmol/kg
- inhibition at 2 µM (COX-1; concentration of 2.0 μM): 17%
- inhibition at 2 µM (COX-2; concentration of 2.0 μM): 25%
- selectivity for COX-2 (in words) (COX-2): non-selective
- S I (selectivity COX-2/COX-1) (COX-2): 1.47
- Anti-inflammatory activity, 0.5 h (%) [2]: 13.85%
- Anti-inflammatory activity, 1 h (%) [2]: 12.35%
- Anti-inflammatory activity, 2 h (%) [2]: 8.59%
- Anti-inflammatory activity, 3 h (%) [2]: 8.58%

Structure (SMILES): Cc1ccc(S(=O)(=O)N(C(=O)c2ccccc2)[C@H](C(=O)Nc2cc(C)ccn2)C(C)C)cc1 [Compound 7n, (2S)-3-Methyl-2-[N-(4-methylbenzenesulfonyl)-1-phenylformamido]-N-(4-methylpyridin-2-yl) butanamide]
- LD50 at 72 h [1]: 20.1 µmol/kg
- inhibition at 2 µM (COX-1; concentration of 2.0 μM): 32%
- inhibition at 2 µM (COX-2; concentration of 2.0 μM): 48%
- selectivity for COX-2 (in words) (COX-2): non-selective
- S I (selectivity COX-2/COX-1) (COX-2): 1.50
- Anti-inflammatory activity, 0.5 h (%) [2]: 21.54%
- Anti-inflammatory activity, 1 h (%) [2]: 16.47%
- Anti-inflammatory activity, 2 h (%) [2]: 10.56%
- Anti-inflammatory activity, 3 h (%) [2]: 3.09%

Structure (SMILES): Cc1ccc(S(=O)(=O)N2CC(O)C[C@H]2C(=O)Nc2cc(C)ccn2)cc1 (stereo partly drawn) [Compound 7o, (2S)-4-Hydroxy-1-(4-methylbenzenesulfonyl)-N-(4-methylpyridin-2-yl)pyrrolidine-2-carboxamide]
- LD50 at 72 h [1]: 10.1 µmol/kg
- inhibition at 2 µM (COX-1): 6%
- inhibition at 2 µM (COX-2): 18%
- Anti-inflammatory activity, 0.5 h (%) [2]: 21.54%
- Anti-inflammatory activity, 1 h (%) [2]: 11.23%
- Anti-inflammatory activity, 2 h (%) [2]: 8.78%
- Anti-inflammatory activity, 3 h (%) [2]: 5.56%

Structure (SMILES): Cc1ccc(S(=O)(=O)N2CCC[C@H]2C(=O)Nc2cc(C)ccn2)cc1 [Compound 7p, (2S)-1-(4-Methylbenzenesulfonyl)-N-(4-methylpyridin-2-yl)pyrrolidine-2-carboxamide]
- LD50 at 72 h [1]: 9.9 µmol/kg
- inhibition at 2 µM (COX-1): 8%
- inhibition at 2 µM (COX-2): 20%
- Anti-inflammatory activity, 0.5 h (%) [2]: 29.15%
- Anti-inflammatory activity, 1 h (%) [2]: 28.24%
- Anti-inflammatory activity, 2 h (%) [2]: 30.34%
- Anti-inflammatory activity, 3 h (%) [2]: 33.26%
